Data on 25 compounds can be found in patent publication US20050197338A1, “Substituted pyrazole urea compounds for the treatment of inflammation” (priority 2003, published 2005).

The target in one assay is T1, Rat IKK-2 (Rattus norvegicus, UniProt Q9QY78).
T1 sequence (Q9QY78 1-757): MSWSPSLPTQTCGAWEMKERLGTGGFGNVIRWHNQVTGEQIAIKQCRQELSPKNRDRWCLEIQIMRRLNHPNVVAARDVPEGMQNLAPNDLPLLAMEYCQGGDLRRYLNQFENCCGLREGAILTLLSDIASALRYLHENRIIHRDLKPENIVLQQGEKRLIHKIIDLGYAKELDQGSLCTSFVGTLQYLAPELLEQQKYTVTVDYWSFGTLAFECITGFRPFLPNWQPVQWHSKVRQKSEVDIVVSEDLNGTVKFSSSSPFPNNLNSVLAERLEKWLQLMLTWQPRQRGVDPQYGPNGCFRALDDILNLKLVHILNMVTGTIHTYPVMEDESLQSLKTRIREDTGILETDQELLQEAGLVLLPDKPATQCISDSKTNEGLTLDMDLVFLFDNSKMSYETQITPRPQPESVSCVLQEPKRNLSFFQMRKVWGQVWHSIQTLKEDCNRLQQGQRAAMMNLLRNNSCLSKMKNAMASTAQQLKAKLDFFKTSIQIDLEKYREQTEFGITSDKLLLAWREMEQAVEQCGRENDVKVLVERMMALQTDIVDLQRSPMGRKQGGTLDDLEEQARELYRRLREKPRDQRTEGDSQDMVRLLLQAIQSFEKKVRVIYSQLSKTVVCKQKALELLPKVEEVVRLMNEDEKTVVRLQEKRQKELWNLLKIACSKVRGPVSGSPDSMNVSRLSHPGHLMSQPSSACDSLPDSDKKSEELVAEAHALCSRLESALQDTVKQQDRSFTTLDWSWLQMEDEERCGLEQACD
Kind of assay: Rat IKK-2 enzyme assay. As to conditions: read-out: IC50 (μM) rIKK-2. It is filed as biochemical. The protocol: Kinase activity was measured using a biotinylated […] peptide (Gly-Leu-Lys-Lys-Glu-Arg-Leu-Leu-Asp-Asp-Arg-His-Asp-Ser32-Gly-Leu-Asp-Ser36-Met-Lys-Asp-Glu-Glu) (American Peptide Co.). 20 μL of the standard reaction mixture contained 5 μM biotinylated IκBα peptide, 0.1 μCi/reaction [γ-^33P] ATP (Amersham) (about 1×10^5 cpm), 1 μM ATP (Sigma), 1 mM DTT (Sigma), 2 mM MgCl2 (Sigma), 2 mM MnCl2 (Sigma), 10 mM NaF (Sigma), 25 mM Hepes (Sigma) buffer, pH. 7.6 and 20 μL enzyme solution (50 nM/rxn or 200 ng/rxn) and 10 μL inhibitor in a final volume of 50 μL. After incubation at 25° C. for 60 min, 150 μL resin was added to each well to stop the reaction. Resin was mixed and allowed to settle for 1 h and 50 μL of supernatant was removed to a Micolite 2 flat bottom plate (Dynex). 150 μL of scintillation fluid (Microscint 40) (Packard) was added to each well. Incorporation of [γ-^33P] ATP was measured using a Top-Count NXT (Packard).

The target of assay [1] is T2, human IKK-2 (rhIKK-2 homodimer) (Homo sapiens, UniProt O14920).
T2 construct: FLAG (DYKDDDDKD) (C); made in house; host or cells: insect cells (baculovirus, pFastBac)
T2 sequence (O14920 1-756): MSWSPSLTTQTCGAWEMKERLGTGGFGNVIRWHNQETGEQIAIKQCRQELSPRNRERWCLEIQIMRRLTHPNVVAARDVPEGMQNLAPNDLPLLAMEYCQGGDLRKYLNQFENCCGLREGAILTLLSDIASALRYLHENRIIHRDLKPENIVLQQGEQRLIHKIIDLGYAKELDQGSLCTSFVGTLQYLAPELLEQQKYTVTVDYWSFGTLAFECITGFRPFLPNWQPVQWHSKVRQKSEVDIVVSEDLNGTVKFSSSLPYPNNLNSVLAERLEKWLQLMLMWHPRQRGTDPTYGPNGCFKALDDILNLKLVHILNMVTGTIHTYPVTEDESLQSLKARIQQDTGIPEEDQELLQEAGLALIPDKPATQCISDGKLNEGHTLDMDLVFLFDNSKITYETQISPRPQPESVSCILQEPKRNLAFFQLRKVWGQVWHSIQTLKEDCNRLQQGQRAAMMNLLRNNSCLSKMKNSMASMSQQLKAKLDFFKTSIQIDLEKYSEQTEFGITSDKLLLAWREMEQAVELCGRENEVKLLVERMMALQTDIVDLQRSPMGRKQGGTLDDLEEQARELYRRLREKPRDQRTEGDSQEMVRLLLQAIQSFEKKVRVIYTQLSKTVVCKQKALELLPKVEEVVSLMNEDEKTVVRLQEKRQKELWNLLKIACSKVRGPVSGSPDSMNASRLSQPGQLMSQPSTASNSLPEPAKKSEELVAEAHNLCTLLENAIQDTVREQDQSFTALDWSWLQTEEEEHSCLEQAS
Nature of the assay: IKK-2 Resin Enzyme Assay (Human IKK-2 Enzyme Assay). It is filed as biochemical. The note with it: human IKK-2, resin enzyme assay; read-out: IC50 (μM) hIKK-2. Put shortly: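 C-terminally FLAG-tagged human IKK-2 homodimer, baculovirus-expressed in insect cells and anti-FLAG purified. Reaction mix: 5 μM biotinylated IκBα peptide (Ser32/Ser36 region), 1 μM ATP with [γ-33P]ATP, 2 mM MgCl2, 2 mM MnCl2, 10 mM NaF, 1 mM DTT, 25 mM HEPES pH 7.6. Incubated 30 min at 25 °C; IC50 derived.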

The structures appear in SMILES notation.

For the compound `COc1ccccc1-c1ccc(-n2cc(NC(N)=O)c(C(N)=O)n2)cc1F` [Example 267, 4-[(aminocarbonyl)amino]-1-(2-fluoro-2′-methoxy-1,1′-biphenyl-4-yl)-1H-pyrazole-3-carboxamide], the IC50 on Rat IKK-2 is 2.75 µM.

Regarding `NC(=O)Nc1cn(-c2ccc(-c3ccc(O)cc3)c(Cl)c2)nc1C(N)=O` [Example 272, 4-[(aminocarbonyl)amino]-1-(2-chloro-4′-hydroxy-1,1′-biphenyl-4-yl)-1H-pyrazole-3-carboxamide], the IC50 on Rat IKK-2 came to 0.167 µM.

As for `NC(=O)Nc1cn(-c2ccc(Br)c(O)c2)nc1C(N)=O` [Example 276, 4-[(aminocarbonyl)amino]-1-(4-bromo-3-hydroxyphenyl)-1H-pyrazole-3-carboxamide], the IC50 at Rat IKK-2 was 0.194 µM.

`Cc1ccccc1-n1cc(NC(N)=O)c(C(N)=O)n1` [Example 318, 1-o-tolyl-4-ureido-1H-pyrazole-3-carboxylic acid amide]: on Rat IKK-2, the IC50 was 8.52 µM.

Regarding `COc1ccc(-n2cc(NC(N)=O)c(C(N)=O)n2)cc1OC` [Example 330, 4-[(aminocarbonyl)amino]-1-(3,4-dimethoxyphenyl)-1H-pyrazole-3-carboxamide], at Rat IKK-2, the IC50 is 1.78 µM.

In the case of `COc1ccc(F)cc1-c1ccc(-n2cc(NC(N)=O)c(C(N)=O)n2)cc1F` [Example 269, 4-[(aminocarbonyl)amino]-1-(2,5′-difluoro-2′-methoxy-1,1′-biphenyl-4-yl)-1H-pyrazole-3-carboxamide], the IC50 on Rat IKK-2 was 0.781 µM.

Turning to `NC(=O)Nc1cn(-c2cccc(F)c2)nc1C(N)=O` [Example 316, 1-(3-fluoro-phenyl)-4-ureido-1H-pyrazole-3-carboxylic acid amide], the IC50 at Rat IKK-2 is 0.533 µM.

As for `NC(=O)Nc1cn(-c2ccc([S+]([O-])c3ccncc3)cc2)nc1C(N)=O` (stereo not shown) [Example 294, 1-(3-carbamoyl-1-(4-(pyridin-4-ylsulfinyl)phenyl)-1H-pyrazol-4-yl)urea], the IC50 on Rat IKK-2 worked out at 0.237 µM.

As to `NC(=O)COc1cc(F)ccc1-c1ccc(-n2cc(NC(N)=O)c(C(N)=O)n2)cc1F` [Example 268, 4-[(aminocarbonyl)amino]-1-[2′-(2-amino-2-oxoethoxy)-2,4′-difluoro-1,1′-biphenyl-4-yl]-1H-pyrazole-3-carboxamide], the IC50 on Rat IKK-2 came out at 0.175 µM.

Regarding `Cc1cc(-n2cc(NC(N)=O)c(C(N)=O)n2)ccc1S(=O)(=O)c1cccc(F)c1` [Example 312, 1-[4-(3-fluoro-benzenesulfonyl)-3-methyl-phenyl]-4-ureido-1H-pyrazole-3-carboxylic acid amide], the IC50 on Rat IKK-2 came out at 0.975 µM.

As for `NC(=O)Nc1cn(-c2ccc(-c3ccc(O)cc3)c(F)c2)nc1C(N)=O` [Example 264, 4-[(aminocarbonyl)amino]-1-(2-fluoro-4′-hydroxy-1,1′-biphenyl-4-yl)-1H-pyrazole-3-carboxamide], the IC50 at Rat IKK-2 was 0.17 µM.

In the case of `NC(=O)Nc1cn(-c2ccc(-c3ccc(O)c(F)c3)c(F)c2)nc1C(N)=O` [Example 265, 4-[(aminocarbonyl)amino]-1-(2,3′-difluoro-4′-hydroxy-1,1′-biphenyl-4-yl)-1H-pyrazole-3-carboxamide], on Rat IKK-2, the IC50 was found to be 6.16 µM.

For `CCCOc1ccc(-n2cc(NC(N)=O)c(C(N)=O)n2)cc1C` [Example 306, 4-[(aminocarbonyl)amino]-1-(3-methyl-4-propoxyphenyl)-1H-pyrazole-3-carboxamide], at Rat IKK-2, the IC50 turned out to be 0.766 µM.

As for `Cc1cc(-n2cc(NC(N)=O)c(C(N)=O)n2)ccc1Sc1cccc(F)c1` [Example 311, 1-[4-(3-fluoro-phenylsulfanyl)-3-methyl-phenyl]-4-ureido-1H-pyrazole-3-carboxylic acid amide], on Rat IKK-2, the IC50 worked out at 2.33 µM.

With `NC(=O)Nc1cn(-c2cccc(O)c2)nc1C(N)=O` [Example 300, 1-(3-hydroxy-phenyl)-4-ureido-1H-pyrazole-3-carboxylic acid amide], the IC50 at Rat IKK-2 was determined as 0.378 µM.

`NC(=O)Nc1cn(-c2ccc(-c3cc(F)ccc3OCc3ncco3)cc2)nc1C(N)=O` [Example 255, 4-[(aminocarbonyl)amino]-1-[5′-fluoro-2′-(1,3-oxazol-2-ylmethoxy)-1,1′-biphenyl-4-yl]-1H-pyrazole-3-carboxamide]: the concentration for half-maximal inhibition (IC50) in assay [1] is 0.762 µM.

In the case of `NC(=O)Nc1cn(-c2ccc(S(=O)(=O)c3ccccn3)cc2)nc1C(N)=O` [Example 286, 1-(3-carbamoyl-1-(4-(pyridin-2-ylsulfonyl)phenyl)-1H-pyrazol-4-yl)urea], in assay [1], the concentration for half-maximal inhibition (IC50) turned out to be 0.663 µM.

Take `CNC(=O)Nc1cn(-c2ccc(I)c(C)c2)nc1C(N)=O` [Example 245, 1-(4-Iodo-3-methyl-phenyl)-4-(3-methyl-ureido)-1H-pyrazole-3-carboxylic acid amide]: the IC50 in assay [1] came to 5.51 µM.

On to `NCc1cccc(-c2cccc(-n3cc(NC(N)=O)c(C(N)=O)n3)c2)c1` [Example 78, 4-[(aminocarbonyl)amino]-1-[3′-(aminomethyl)-1,1′-biphenyl-3-yl]-1H-pyrazole-3-carboxamide], for which, in assay [1], the IC50 was determined as 0.81 µM.

With `NC(=O)Nc1cn(-c2ccc([S+]([O-])c3ccccc3O)cc2)nc1C(N)=O` (stereo not shown) [Example 285, 1-(1-(4-(2-hydroxyphenylsulfinyl)phenyl)-3-carbamoyl-1H-pyrazol-4-yl)urea], the IC50 in assay [1] worked out at 0.578 µM.

In the case of `NC(=O)Nc1cn(-c2ccc(Cl)cc2)nc1C(N)=O` [Example 214, 4-[(aminocarbonyl)amino]-1-(4-chlorophenyl)-1H-pyrazole-3-carboxamide], the IC50 in assay [1] turned out to be 0.382 µM.

Turning to `NC(=O)Nc1cn(-c2ccc(-c3cccc(OCc4ccccn4)c3)cc2)nc1C(N)=O` [Example 168, 4-[(aminocarbonyl)amino]-1-[3′-(pyridin-2-ylmethoxy)-1,1′-biphenyl-4-yl]-1H-pyrazole-3-carboxamide], in assay [1], the IC50 is 1.99 µM.

For the compound `NC(=O)Nc1cn(-c2ccc(Sc3cccc(Cl)c3)cc2)nc1C(N)=O` [Example 289, 1-(1-(4-(3-chlorophenylthio)phenyl)-3-carbamoyl-1H-pyrazol-4-yl)urea], the IC50 in assay [1] is 10.6 µM.

Take `NC(=O)Nc1cn(-c2cccc(-c3cccc(N)c3)c2)nc1C(N)=O` [Example 50, 1-(3′-amino-1,1′-biphenyl-3-yl)-4-[(aminocarbonyl)amino]-1H-pyrazole-3-carboxamide]: the IC50 in assay [1] came to 2.08 µM.

In the case of `Cc1cc(S(=O)(=O)c2ccc(F)cc2)ccc1-n1cc(NC(N)=O)c(C(N)=O)n1` [Example 229, 4-[(aminocarbonyl)amino]-1-{4-[(4-fluorophenyl)sulfonyl]-2-methylphenyl}-1H-pyrazole-3-carboxamide], in assay [1], the IC50 was 2.19 µM.
